Experimental data taken from patent publication US12338351B2, “Dip molding emulsion, method of producing glove, and glove” (Midori Anzen Co., Ltd., priority 2018, dated 2025).

Experiments:
Assay type in all cases: physicochemical
[1] = MIBK/water distribution ratio of epoxy crosslinking agent; conditions: 5.0 g water, 5.0 g MIBK, 0.5 g crosslinking agent, 23±2° C., average of three
Experimental: Method of measuring the MIBK/water distribution ratio: in a test tube, 5.0 g of water, 5.0 g of methyl isobutyl ketone (MIBK) and 0.5 g of the epoxy crosslinking agent are precisely weighed and mixed with stirring at 23° C.±2° C. for 3 minutes, and the resulting mixture is centrifuged at 1.0×103 G for 10 minutes and thereby separated into an aqueous layer and an MIBK layer, after which the MIBK layer is fractionated and weighed to calculate the MIBK/water distribution ratio using the following equation: MIBK/water distribution ratio (%)=(Weight of separated MIBK layer (g)−Weight of MIBK before separation (g))/Weight of added crosslinking agent (g)×100 • this measurement is performed three times, and an average value thereof is defined as the MIBK/water distribution ratio.
First, about 5.0 g of water, about 5.0 g of MIBK and about 0.5 g of the epoxy crosslinking agent are precisely weighed and added to a test tube. The weight of MIBK and that of the epoxy crosslinking agent are defined as M (g) and E (g), respectively.
This mixture is thoroughly mixed with stirring for 3 minutes at a temperature of 23° C.±2° C. and subsequently separated into an aqueous layer and an MIBK layer by 10-minute centrifugation at 1.0×10^3 G. Thereafter, the weight of the MIBK layer is measured and defined as ML (g). MIBK/water distribution ratio (%)=(ML (g)−M (g))/E (g)×100
The methyl isobutyl ketone (MIBK)/water distribution ratio (%) was measured for the purpose of checking the amount of the movement of each epoxy crosslinking agent into an MIBK layer in an environment similar to the environment in a latex liquid.
3. Fractionate the thus separated MIBK layer into a disposable cup using a Pasteur pipette and measure the weight of the MIBK layer.
4. Calculate the MIBK/water distribution ratio using the following equation: MIBK/water distribution ratio (%)=(Weight (g) of separated MIBK layer−Weight (g) of MIBK before separation))/(Weight (g) of added crosslinking agent)×100
5. Perform this measurement three times, and calculate the average value thereof as the MIBK/water distribution ratio.
It is noted here that a vortex mixer (VORTEX-GENIE 2 Mixer, standard model; manufactured by Scientific Industries, Inc.) was used for the stirring in the procedure 2.

[2] = Dissolution rate in water of epoxy crosslinking agent; conditions: 25.0 g in 225 g water (25° C.), stirred 15 minutes, left to stand 1 hour
Experimental: 1. Precisely weigh 25.0 g of the epoxy crosslinking agent composition in a beaker, and add thereto 225 g of water (25° C.).
2. Vigorously stir and mix the resultant at room temperature (23° C.±2° C.) for 15 minutes, and leave the resulting mixture to stand for 1 hour.
3. Measure the volume (mL) of an oily matter precipitated on the bottom of the beaker.
The dissolution rate in water (%) was measured for the purpose of checking the solubility of each epoxy crosslinking agent in water. The dissolution rate in water can be measured by the following procedures.
1. Precisely weigh 25.0 g of the subject crosslinking agent composition in a beaker.
2. Add 225 g of 25° C. water, and vigorously stir the resultant at room temperature for 15 minutes using a magnetic stirrer.
3. After leaving the beaker to stand at room temperature for 1 hour, measure the volume (mL) of an oily matter precipitated on the bottom.

[3] = Pot life (working life) of dip molding composition; conditions: XNBR NL120H(a)
Text: The term “pot life” used herein represents a property of a dip molding composition, and a method of determining the “pot life” will be described below in the section of Examples. Specifically, the “pot life” refers to a period from the preparation of a dip molding composition to the formation of a cured film, in which period the use of the dip molding composition allows the resulting cured film to satisfy specific criteria.
In the present invention, the acceptable level of the pot life of the dip molding composition necessary for mass production is defined as a level at which a film produced using the dip molding composition that has been stored for at least 3 days satisfies a tensile strength of 20 MPa or higher and a fatigue durability of 240 minutes or longer, which are performances required as a glove.
The pot life is determined based on the time from the addition of an epoxy crosslinking agent in the preparation of a dip molding composition to adhesion of the dip molding composition to a glove forming mold. Moreover, the types of XNBRs and epoxy crosslinking agents used in dip molding compositions are shown in the respective Tables below.
The pot life of each dip molding composition was determined by the following procedures. The unit of the pot life is day. The dip molding compositions were prepared using the respective epoxy crosslinking agents and stored, and cured films were produced at one-day intervals. […] The number of days of storage until the last acceptable day was defined as the pot life. In this Experimental Example, experiments were conducted until day 7 as the longest duration of storage.

[4] = 0.5 parts by weight epoxy crosslinking agent, fatigue durability 240 minutes acceptable line, experiments until day 7

Molecule | Dissolution rate in water [2] [%] | MIBK/water distribution ratio [1] [%] | also measured
polyglycerol polyglycidyl ether [epoxy crosslinking agent K] | 100 | – | MIBK/water distribution ratio ([1]; listed as K): 6%
C(OCC1CO1)C(COCC1CO1)OCC1CO1 (stereo not drawn) [epoxy crosslinking agent H, glycerol triglycidyl ether] | 99 | 28 | Pot life [3, 4]: 2 days; Pot life ([3]; added amount of epoxy crosslinking agent increased to 1.0 part by weight): 3 days
polyglycerol polyglycidyl ether [epoxy crosslinking agent L] | – | – | MIBK/water distribution ratio ([1]; listed as L): −10%
polyethylene glycol diglycidyl ether [epoxy crosslinking agent N] | 99 | 4 | –
diglycerol triglycidyl ether [epoxy crosslinking agent G] | 88 | 36 | Pot life [3, 4]: 3 days
sorbitol polyglycidyl ether [epoxy crosslinking agent I] | – | – | MIBK/water distribution ratio ([1]; listed as I): 26%; Dissolution rate in water ([2]; listed as I): 78%
CC(COCC1CO1)OCC1CO1 (stereo not drawn) [epoxy crosslinking agent M, propylene glycol diglycidyl ether] | 75 | 57 | –
sorbitol polyglycidyl ether [epoxy crosslinking agent J] | – | – | MIBK/water distribution ratio ([1]; listed as J): 23%; Dissolution rate in water ([2]; listed as J): 94%
